Laboratory results taken from PubChem BioAssay (NCI).
Values joined by “and” are separate entries in the source; they are usually repeats but may differ in a detail not shown here. Equal entries are not always repeated.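 1) Cells in 96-well plates. 2) Compound, 48 h, 5 concentrations. 3) Linear interpolation between surrounding doses. 4) Unreached endpoint = highest concentration. Abbreviation: GI50, concentration required for 50% inhibition of growth. TGI: concentration producing complete growth inhibition.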

How the values were obtained:
Assay in all cases: growth of human tumour cells (NCI), 48 h
786-0 renal = system: 786-0 renal
DMS 114 small cell lung = system: DMS 114 small cell lung
DMS 273 small cell lung = system: DMS 273 small cell lung
HOP-18 NSCLC = system: HOP-18 NSCLC
KM20L2 colon = system: KM20L2 colon
RXF-631 renal = system: RXF-631 renal
SN12K1 renal = system: SN12K1 renal
SNB-78 CNS = system: SNB-78 CNS
XF 498 CNS = system: XF 498 CNS
DLD-1 colon = system: DLD-1 colon

In the case of `CN(CC(=O)O)CC(=O)O`, the TGI (786-0 renal) is reported as > 100 µM.

For `CC[C@@]1(O)C(=O)OCc2c1cc1n(c2=O)Cc2cc3c(CN(C)C)c(O)ccc3nc2-1`, the GI50 (DMS 114 small cell lung) was < 0.0351 µM, the TGI (DMS 114 small cell lung) was 0.691 µM and 0.162 µM and the GI50 (DMS 273 small cell lung) was 0.0372 µM. For the same compound, the TGI (DMS 273 small cell lung) was 1.09 µM and 0.609 µM, the GI50 (HOP-18 NSCLC) was 0.132 µM and the TGI (HOP-18 NSCLC) was 89 µM. It also gave a GI50 (KM20L2 colon) of 2.22 µM, a TGI (KM20L2 colon) of 8.27 µM and a TGI (RXF-631 renal) of 30.1 µM. The TGI (SN12K1 renal) was 1.19 µM, the GI50 (SNB-78 CNS) was 0.0867 µM and the TGI (SNB-78 CNS) was 2.49 µM. The GI50 (XF 498 CNS) was 0.585 µM.

In the case of `O=S(=O)(Nc1nccs1)c1ccc([As](=O)(O)O)cc1`, the TGI (786-0 renal) is reported as > 100 µM.

`CC(C)=CC1C(COC(=O)c2ccccc2Cl)C1(C)C` (centres undefined) was tested, and the TGI (786-0 renal) was > 100 µM.

For `CC1(CO)C(O)CCC2(C)C1C(O)CC1CC3CC12CCC3(O)CO` (centres undefined), the TGI (DLD-1 colon) was > 225 µM, the TGI (DMS 114 small cell lung) was > 225 µM and the TGI (DMS 273 small cell lung) was > 199 µM. The TGI (HOP-18 NSCLC) was > 225 µM, the TGI (KM20L2 colon) was > 225 µM and the TGI (SN12K1 renal) was > 225 µM. For the same compound, the TGI (SNB-78 CNS) was > 225 µM and the TGI (XF 498 CNS) was > 225 µM.

Work on `CCN(CC)CCCC(C)Nc1c2ccc(Cl)cc2nc2cc(Cl)ccc12` (centres undefined) yielded a TGI (DLD-1 colon) of 9.38 µM, a TGI (DMS 114 small cell lung) of 16.6 µM and a TGI (DMS 273 small cell lung) of 10.3 µM. The TGI (HOP-18 NSCLC) was 18.1 µM, the TGI (KM20L2 colon) was 11.6 µM and the TGI (SN12K1 renal) was 8.47 µM. The TGI (SNB-78 CNS) was 26.6 µM and the TGI (XF 498 CNS) was 9.64 µM.

Compound `O=[N+]([O-])c1ccc(Cc2nc3cc4ccccc4cc3[nH]2)cc1C(F)(F)F` has a TGI (786-0 renal) of 25.4 µM.

For `CC(=O)Nc1c2sscc-2n(C)c1=O`, the TGI (786-0 renal) was 3.24 µM.
